How the values were obtained:
HT29 tumor cells = test: In vitro cell proliferation inhibition (CellTiterGlo); assay type: cell-based; details: Homo sapiens, HT-29
Experimental: The ability of compounds to inhibit the proliferation of HT29 tumor cells was measured.
The assay compound was dissolved in 100% DMSO to prepare 10 mM stock solution.
• a) UV light of a biological safety cabin was turned on, and 30 minutes were counted down; • b) In a 37° C. water bath, RPMI1640 medium and trypsin were preheated; • c) After completion of the UV irradiation, the biological safety cabin was opened. The preheated medium, trypsin and phosphate buffered saline (PBS), etc. were wiped with alcohol and placed in the biological safety cabin; • d) HT29 cells were removed from the incubator, and the old medium was removed in biological safety cabin. 10 ml of PBS was added. […] The culture vessel was shaken horizontally so that the trypsin evenly covered the cells at the bottom, and placed in an incubator for 2 minutes; • f) Cell digestion was stopped with complete medium, and the cell suspension was pipetted to homogeneity and counted; • g) According to the result of cell counting, the density of cell suspension was adjusted to 1500 cells per well, and the cell suspension was seeded at 50 μl per well; • h) The stock solution of compounds was serially diluted in DMSO solution, and compounds were added to cell plate using Tecan; • i) The compound-added cell plate and CellTiterGlo were equilibrated at room temperature, and 25 microliters of CellTiterGlo was then added to each well. […]

ERK2 = ERK2 (Homo sapiens (Human), UniProt P28482); test: In vitro ERK2 kinase activity assay (33P-ATP, filter-binding); assay type: biochemical
ERK2, sequence (P28482 whole entry): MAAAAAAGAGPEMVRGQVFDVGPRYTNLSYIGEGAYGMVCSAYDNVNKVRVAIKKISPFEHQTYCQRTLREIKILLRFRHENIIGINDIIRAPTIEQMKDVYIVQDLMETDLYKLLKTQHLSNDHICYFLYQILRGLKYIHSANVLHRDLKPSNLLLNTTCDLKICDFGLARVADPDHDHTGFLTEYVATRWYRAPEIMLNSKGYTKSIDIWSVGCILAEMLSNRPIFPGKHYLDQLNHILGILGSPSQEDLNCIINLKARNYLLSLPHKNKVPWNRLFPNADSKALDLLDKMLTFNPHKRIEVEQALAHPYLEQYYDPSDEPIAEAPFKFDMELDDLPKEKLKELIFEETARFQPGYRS
Experimental: The ability of compounds to inhibit ERK1 and ERK2 kinase activity was measured.
20 mM Hepes (pH 7.5), 10 mM MgCl2, 1 mM ethylenebis(oxyethylenenitrilo)tetraacetic acid (EGTA), 0.02% Brij35, 0.02 mg/mL bovine serum albumin (BSA), 0.1 mM Na3VO4, 2 mM dithiothreitol (DTT), 1% DMSO.
The assay compound was dissolved in 100% DMSO to prepare a stock solution of specific concentration. The compound was serially diluted in DMSO solution using Integra Viaflo Assist smart pipette.
• a) The substrate MBP was prepared in freshly prepared reaction buffer; • b) ERK1 (or ERK2) kinase was added to the above-mentioned MBP solution and mixed gently; • c) The compound dissolved in 100% DMSO was added to the kinase reaction system using ultrasound technology (Echo550; nanoliter range), and the mixture was incubated at room temperature for 20 minutes; • d)^33P-ATP (specific concentration of […]) was added to the reaction system, and the reaction was started at this time; • e) The mixture was incubated at room temperature for 2 hours; • f) The amount of radioactivity was detected by filter-binding method; • g) ERK1 (or ERK2) kinase activity was calculated as the ratio of the remaining kinase activity in the assay sample to the kinase activity of the control group (treated by DMSO).
Curve was fitted using Prism (GraphPad software) and IC50 values were calculated.

IC50 (HT29 tumor cells) [nM] | IC50 (ERK2) [nM] | SMILES
46 | 0.47 | Cc1cccc(CN2C(=O)c3nc(-c4nc(NC5CCOCC5)ncc4C)sc3C2(C)C)n1 [WX002]
 | 0.93 | Cc1cccc(CN2C(=O)c3nc(-c4ccnc(Nc5ccnn5C)n4)sc3C2(C)C)n1 [WX003]
 | 0.34 | CCc1cnc(Nc2ccnn2C)nc1-c1nc2c(s1)C(C)(C)N(Cc1cccc(C)n1)C2=O [WX004]
